Reference: patent publication US11413337B2, “Peptide conjugated particles for the treatment of inflammation” (Northwestern University, priority 2012, dated 2022)
Where no end group is shown, it is not given here.

What was measured:
[1] = test system: mediastinal lymph nodes; assay: OVA-specific in vitro recall responses from mediastinal lymph nodes; assay type: cell-based, mouse
Source text: Moreover treatment with OVA-PLG decreases the release of cytokines after restimulation with OVA.

[2] = test system: allergic airway inflammation; assay: prophylactic allergic airway inflammation, OVA/Alum; assay type: in vivo, mouse
Method: To test the prophylactic effect of OVA encapsulated in PLG particles on airway inflammation, mice were treated intravenously with OVA-PLG at day −7. On day 0, the mice received intraperitoneal injections of OVA/Alum at a dose of 10 μg/mouse. On day 7, the mice were again treated intravenously with OVA-PLG and received another 10 μg/mouse ip injection of OVA/Alum on day 14. Between days 28 and 30, the mice were treated three times with aerosolized OVA.

[3] = test system: CD45.1 donor cells; assay: engraftment of male CD45.1 bone marrow cells in female CD45.2 mice; assay type: in vivo, mouse
Source text: Female CD45.2 mice were tolerized with either OVA-PLG or the control peptide Dby-PLG (the major H-Y antigen expressed by Male C57BL/6 mice) on day −7. On day −1, the mice were irradiated with 200 rads and were then transplanted with 1×10^6, 5×10^6, or 1×10^7 bone marrow cells from male CD45.1 mice on day 0. The recipient mice were then tolerized with either OVA-PLG, Dby-SP, or Dby-PLG on day 1 and the blood harvested for FACS analysis of chimerism.

[4] = test system: allergic airway inflammation; assay: therapeutic allergic airway inflammation, OVA/Alum; assay type: in vivo, mouse
Method: To test the therapeutic effect of OVA encapsulated in PLG particles on airway inflammation, mice were treated intraperitoneally with OVA/Alum at a dose of 10 μg/mouse on day 0 and day 14. The mice were intravenously administered with OVA-PLG on days 28, and 42. Between days 56-58, the mice were treated three times with aerosolized OVA.
The animals were treated as described above except that on days 28 and 42, the mice were treated with either OVA encapsulated in PLG particles, or OVA coupled to PLG particles.

[5] = test system: Relapsing Experimental Autoimmune Encephalitis; assay: treatment of active R-EAE at day 10, route of administration; assay type: in vivo, mouse
Method: Experiments were conducted during development of embodiments of the present invention to investigate the ability of the PLG-PLP139-151 particles to treat disease rather than prevent disease, and to determine whether the route of administration affected the development of disease. Mice were immunized at day 0 with PLP139-151 and an adjuvant. Mice normally have maximal clinical scores at day 12-14. In this model, the mice were treated at day 10 with the PLG-PLP139-151 particles or with control PLG-OVA323-339 particles either via intravenous (iv) administration, intraperitoneal (ip) administration, subcutaneous (sc) administration, or orally. […] This is in contrast to animals treated with PLP139-151 polystyrene particles, whereby >70% of animals where observed to die from anaphylaxis.

[6] = test system: SJL/J mice with EAE; assay: iv injection during EAE remission (day 21), anaphylaxis; assay type: in vivo, mouse; conditions: administration during remission, d21
Method: EAE was induced in six to eight week old female SJL/J mice by subcutaneous injection of PLP139-151 in CFA, and development of clinical disease was monitored and recorded (FIG. 5B). On d21 relative to disease induction, mice were given iv injections of soluble PLP139-151 (clear squares), soluble OVA323-339 (clear circles), or the same peptides coupled to PLG nanoparticles (solids). Temperature of animals was monitored and recorded every 10 minutes for 1 hour following injection (FIG. 5A).

[7] = test system: cervical spinal cord; assay: spinal cord histology and in vivo imaging in R-EAE; parameters: species or system mouse
Method: An additional therapeutic tolerance strategy was performed by delivering PLP139-151-PLG or OVA323-339 PLG to mice. […] Mice were treated with PLP-PLG or OVA323-339-PLG and the tissue was retrieved at day 40. The cervical spinal cord was isolated and sectioned to investigate the immune response within the CNS, which underlies the pathology of R-EAE and multiple sclerosis.
The clinical scores and percent incidence of EAE were determined (FIG. 10B) and the spinal cords observed via in vivo imaging (FIGS. 10A and 11). […] The bar graphs give the numerical numbers to the signal strength shown in the brain and SC scans.

[8] = test system: Relapsing Experimental Autoimmune Encephalitis (R-EAE); assay: prophylactic tolerance in PLP139-151/CFA-induced R-EAE, particles given day −7; assay type: in vivo, mouse; conditions: for clinical score: treated day −7
[9] = test system: adoptive EAE; assay: adoptive transfer EAE treated with antigen-coupled PLG particles; assay type: in vivo, mouse; conditions: for mean clinical score: treated at day 2
Method: Experiments were conducted during development of embodiments of the present invention to investigate a second model of active disease termed adoptive transfer. Rather than immunizing the animals with the peptide, the lymphocytes from the spleen of mice with active disease were transferred to a recipient, who would subsequently develop disease. Experiments were conducted during development of embodiments of the present invention to characterize the ability of the PLG nanoparticles to deactivate the adoptively transferred activated effector cells.
Therapeutic tolerance induced by PLP139-151-PLG particles was compared in active and adoptive EAE. Adoptive EAE was induced in six to eight-week old female SJL/J mice by adoptive transfer of 2.5×10^6 PLP139-151-activated blasts. Mice were injected iv with PLP139-151 (squares) or OVA323-339 (circles) peptide coupled to 500 nm PLG nanoparticles 2 days (FIG. 14A) or 14 days (FIG. 14C) following disease induction. Clinical disease scores were compared to those following treatment with antigen-coupled splenocytes (FIG. 14A). Brain and spinal cord were collected from PLP139-151- or OVA323-339-tolerized mice for histological analysis on day 42. Sections from mice from panel A were stained for PLP protein and CD45 (FIG. 14B). Spinal cord sections from mice from panel C were stained with Luxol Fast Blue (FIG. 14D). Areas of demyelination and cellular infiltration are indicated by arrows.
SJL/J mice were injected i.v. with 500 nm PLG nanoparticles coupled with PLP139-151 (squares) or OVA323-339 (circles) 2 days following EAE induction by adoptive transfer. At the peak of disease (day 14) brains and spinal cords were removed and the number of lymphocytes (FIG. 16B), APCs (FIG. 16C), microglia (FIG. 16D), peripheral dendritic cells (FIG. 16E), myeloid dendritic cells (FIG. 16F) and macrophages (FIG. 16G) were enumerated by flow cytometry. The gating strategy for these populations is depicted in (FIG. 16A). CNS cell preparations were stimulated with PMA and ionomycin for 5 h prior to intracellular staining for IL-17A and IFN-γ (FIG. 16H).

[10] = test system: OVA/Alum pre-sensitized mice; assay: anaphylaxis-induced temperature drop in OVA/Alum pre-sensitized animals; assay type: in vivo, mouse; conditions: iv on day 28; within 1 hour of delivering
Method: Due to the presence of active disease, anaphylaxis to the antigens is a concern, which could result in immediate mortality, and has been described with polystyrene bound particles. Anaphylaxis is associated with a significant drop in body temperature. To test whether intravenous administration of OVA-PLG induces an anaphylaxis-induced temperature drop in pre-sensitized animals, mice were immunized at day 0 with 10 μg OVA/Alum via intraperitoneal injection. On day 14, the mice were again immunized with 10 μg OVA/Alum via intraperitoneal injection, and then tolerized with OVA-PLG administered intravenously on day 21. On day 28, the mice were then tolerized with either OVA-PLG particles or OVA via intravenous administration.

Molecule: OVA-PLG: OVA with PLG particles: coupled in Example 3, encapsulated in Examples 12 and 13, OVA323 peptide control in Example 16
- lymph node proliferation ([1]; after restimulation with 25 μg OVA): decreased
- levels of IL-4, IL-5, IL-13, and IL-10 ([1]; after restimulation with OVA): decreased
- eosinophils in the lung [2]: reduced
- levels of serum OVA IgE [2]: reduced
- secretion of IL-4, IL-5, IL-13 and IL-10 ([2]; iv day −7 and day 7): decreased
- engraftment, one mouse ([3]; Day −7, Day +1 group, FIG. 28): 12%
- engraftment (percent of donor CD45.1 cells), individual mice ([3]; tolerized day 1, FIG. 27): ~10%
- eosinophils in the lung [4]: reduced
- levels of serum OVA IgE [4]: reduced
- secretion of IL-4, IL-5, IL-13 and IL-10 ([4]; iv days 28 and 42): decreased

Molecule: PLP139-151 polystyrene particles: PLP139-151 bound to polystyrene particles (CHCLGKWLGHPDK; cysteine pairing not given here; also: bound to polystyrene particles; UniProt P60202 139-151, looked up, fragment) [reference compound]
- animals observed to die from anaphylaxis ([5]; mouse, in vivo): > 70%

Molecule: PLP139-151-PLG: immunodominant proteolipid protein PLP139-151 epitope coupled to 500 nm PLG nanoparticles (CHCLGKWLGHPDK; cysteine pairing not given here; also: coupled to 500 nm PLG nanoparticles; UniProt P60202 139-151, looked up, fragment)
- anaphylaxis-associated mortality [6]: does not result in any anaphylaxis-associated mortality
- immune cell infiltration within the spinal cord ([7]; day 40): reduction in immune cell infiltration
- cervical spinal cord inflammation and demyelination ([7]; histological analysis, tissue retrieved at day 40): inhibits cervical spinal cord inflammation and demyelination
- blood brain barrier (BBB) disruption and macrophage activation in the spinal cord ([7]; in vivo imaging, Angiosense and prosense): inhibits blood brain barrier (BBB) disruption and macrophage activation
- staining for CD45, CD4, and CD11b ([7]; spinal cord, day 40): minimal staining
- down-regulating induction of R-EAE, by type of particle ([8]; day −7, FIGS. 3A and 3B): more effective in down-regulating induction of R-EAE
- delayed-type hypersensitivity (DTH) responses ([8]; to immunizing PLP139-151 epitope): lack of delayed-type hypersensitivity (DTH) responses
- clinical score ([8]; all time points except days 20 to 30): 0
- clinical score ([8]; between days 20 and 30): under 1
- prevention of disease induction ([8]; treated day −7 relative to immunization): specifically prevented EAE development
- disease (mean clinical score) ([9]; adoptive EAE, iv 2 days following disease induction (FIG. 15B)): reduced disease
- tolerance induction in adoptive EAE ([9]; iv 2 or 14 days following disease induction): tolerance is induced
- infiltration of central nervous system immune cells ([9]; iv day 2, peak of disease (day 14), flow cytometry): drastically reduced
- mean clinical score ([9]; all but two time points through day 40): 0
- mean clinical score ([9]; the other two time points): 0.25
- disease (mean clinical score) ([5]; active EAE, iv 10 days following disease induction (FIG. 15A)): reduced disease
- development of disease ([5]; administered intravenously): did not develop disease
- mean clinical scores ([5]; administered intravenously, at most time points): 0
- efficiency of tolerance by route of administration ([5]; iv, ip, sc or oral, FIG. 7): most efficient when the PLG-PLP139-151 particles are administered either intravenously or intraperitoneally

B1: OVA-PLG: OVA with PLG particles: coupled in Example 3, encapsulated in Examples 12 and 13, OVA323 peptide control in Example 16 (conjugate, UniProt P01012 2-386, looked up)
Ovalbumin: GSIGAASMEFCFDVFKELKVHHANENIFYCPIAIMSALAMVYLGAKDSTRTQINKVVRFDKLPGFGDSIEAQCGTSVNVHSSLRDILNQITKPNDVYSFSLASRLYAEERYPILPEYLQCVKELYRGGLEPINFQTAADQARELINSWVESQTNGIIRNVLQPSSVDSQTAMVLVNAIVFKGLWEKAFKDEDTQAMPFRVTEQESKPVQMMYQIGLFRVASMASEKMKILELPFASGTMSMLVLLPDEVSGLEQLESIINFEKLTEWTSSNVMEERKIKVYLPRMKMEEKYNLTSVLMAMGITDVFSSSANLSGISSAESLKISQAVHAAHAEINEAGREVVGSAEAGVDAASVSEEFRADHPFLFCIKHIATNAVLFFGRCVSP
modifications: coupled to or encapsulated in PLG particles
- body temperature [10]: No decrease in body temperature

B2: soluble OVA: soluble ovalbumin given intravenously (protein, UniProt P01012 2-386, looked up)
Ovalbumin: B1 Ovalbumin
- body temperature [10]: decrease in temperature
